Values joined by “and” are separate entries in the source; they are usually repeats but may differ in a detail not shown here. Equal entries are not always repeated.

In the first test the target is T1, ALK (Invitrogen PV3867) (Homo sapiens, UniProt Q9UM73).
T1 construct: purchased Invitrogen PV3867
T1 sequence (Q9UM73 1058-1620 limits assumed): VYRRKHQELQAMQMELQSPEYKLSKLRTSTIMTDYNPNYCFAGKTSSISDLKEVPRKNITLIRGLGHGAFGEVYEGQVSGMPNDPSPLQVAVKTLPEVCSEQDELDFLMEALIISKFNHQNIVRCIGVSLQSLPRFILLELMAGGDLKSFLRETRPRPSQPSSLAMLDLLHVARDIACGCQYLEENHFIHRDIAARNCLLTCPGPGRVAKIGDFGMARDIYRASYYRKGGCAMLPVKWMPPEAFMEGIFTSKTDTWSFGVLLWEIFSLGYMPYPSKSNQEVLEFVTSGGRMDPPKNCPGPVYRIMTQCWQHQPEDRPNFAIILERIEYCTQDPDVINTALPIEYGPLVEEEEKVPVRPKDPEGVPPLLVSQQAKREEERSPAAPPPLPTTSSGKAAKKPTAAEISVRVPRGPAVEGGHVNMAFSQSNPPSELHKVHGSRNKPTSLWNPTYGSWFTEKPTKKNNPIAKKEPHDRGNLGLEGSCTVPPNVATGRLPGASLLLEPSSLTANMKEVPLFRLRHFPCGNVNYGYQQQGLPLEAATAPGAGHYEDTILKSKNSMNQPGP
The experiment in a line: ALK kinase assay (LanthaScreen time-resolved FRET, 10 μM ATP). Particulars: Table 7; hit fragment alone, no bait; read-out: Fragment IC50. It counts as biochemical. On the procedure:
ALK kinase assays were conducted using the LanthaScreen® time-resolved FRET assay format (Invitrogen, Carlsbad Calif.). Assay conditions consisted of 15 pM (picomolar) ALK (Invitrogen PV3867), 10 μM ATP, and 100 nM substrate peptide FL-polyGT (Invitrogen PV3610) diluted in assay buffer (10 mM Tris pH 7.2, 10 mM MgCl, 1 mM DTT, 100 μM Na2OVO4. 0.01% Triton® X-100, 0.05% Casein). Control compounds and fragment-assembly reaction mixtures were diluted in DMSO to generate stock compounds at 20-fold final concentration. For IC50 assays, fragment-assembly reaction mixtures were titrated three-fold in DMSO and diluted 20-fold into the assay mixture. As a positive control for enzyme activity, the reaction mixture was added to DMSO, and, as a negative control for enzyme activity, the reaction mixture was added to staurosporine (Sigma) at a final concentration of 20 μM.
Fragment Library Pilot Screen. Fragment-assembly reaction mixtures were screened in 384-well plates at a concentration approximating 5-fold lower than that of the purine-mimetic bait fragment IC50 value, in single-point format in the ALK assay as described above. Reaction mixtures resulting in greater than or equal to 50% inhibition of enzymatic activity were then confirmed in single-point format, or tested in an IC50 assay. LC/MS analysis was conducted on fragment assembly screening plates to confirm the presence of desired test ligand in the reaction mixture.
Background: TR-FRET usually uses a lanthanide donor and a delayed reading to cut background.
For the compound `O=C(CS)Nc1ccc(Cl)cc1C(F)(F)F`, the IC50 amounted to 1.62 µM.
Same read-out and setting: to `COc1cccc(C)c1NC(=O)NCCS` belongs 6.64 µM; to `O=C(CS)N1CCCN(c2nc3ccc(Cl)cc3s2)CC1` [Compound 32], 2 µM.

The same test, now with this note: read-out: IC50.
In the case of `COc1ccccc1Nc1ncc(Cl)c(NCCS)n1` [Compound 26], the IC50 came out at 0.5 µM.
In the case of `CC(C)S(=O)(=O)c1ccccc1Nc1nc(NCCS)ncc1Cl` [Compound 27], the IC50 is 0.25 µM.
Still for that read-out and setting: to `CNc1ncc(Cl)c(Nc2cccc(CCl)c2)n1` [Compound 28] belongs 3.75 µM; to `CNc1ncc(Cl)c(CCl)n1` [Compound 29], 7.8 µM.

Another test concerns the target T2, Aurora A (Homo sapiens, UniProt O14965).
T2 sequence (O14965 1-403): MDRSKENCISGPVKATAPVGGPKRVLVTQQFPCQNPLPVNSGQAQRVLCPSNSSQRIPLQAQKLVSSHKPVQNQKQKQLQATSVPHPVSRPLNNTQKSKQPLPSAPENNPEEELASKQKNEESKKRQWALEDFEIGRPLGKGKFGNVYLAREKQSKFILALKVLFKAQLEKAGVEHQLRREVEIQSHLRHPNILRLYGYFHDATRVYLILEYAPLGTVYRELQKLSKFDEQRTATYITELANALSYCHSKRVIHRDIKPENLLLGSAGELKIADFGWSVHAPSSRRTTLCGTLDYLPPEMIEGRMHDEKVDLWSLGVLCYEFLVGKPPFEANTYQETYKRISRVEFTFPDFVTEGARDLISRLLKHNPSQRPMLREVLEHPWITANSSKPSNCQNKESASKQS
The test can be described thus: Aurora A activity in cell based assays. Particulars: inhibition of Aurora A activity in cell based assays.
For orientation: EC50 means the concentration needed to bring the measured effect to its halfway point. Higher therefore signals weaker potency. In turn, `COc1ccc(C(=O)Nc2ccccc2)cc1NC(=O)CCSc1ncnc(N)c1Br` [Compound 15] registered an EC50 of 1 µM.
With `Nc1ncnc(NCCc2cnc(NC(=O)Nc3cccc(C(F)(F)F)c3)s2)c1Br` [Compound 18], a half-maximal response (EC50) required 0.05 µM.

The target of another test is T3, Humanized mouse Aurora A (amino acids 107-403) (Mus musculus, UniProt P97477).
T3 sequence (P97477 1-395 N164G/K218R/M280L): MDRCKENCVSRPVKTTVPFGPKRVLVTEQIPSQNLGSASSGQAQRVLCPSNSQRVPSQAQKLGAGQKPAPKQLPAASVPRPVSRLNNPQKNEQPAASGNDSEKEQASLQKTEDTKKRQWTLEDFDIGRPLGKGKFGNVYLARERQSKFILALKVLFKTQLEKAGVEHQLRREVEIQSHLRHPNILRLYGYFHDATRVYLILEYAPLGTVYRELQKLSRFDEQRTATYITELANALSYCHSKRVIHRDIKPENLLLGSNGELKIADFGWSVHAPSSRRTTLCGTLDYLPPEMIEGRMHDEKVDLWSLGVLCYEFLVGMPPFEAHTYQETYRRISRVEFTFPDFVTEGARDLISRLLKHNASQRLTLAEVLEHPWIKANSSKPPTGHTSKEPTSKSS
The experiment in a line: Aurora A kinase assay (IMAP fluorescence polarization, FAM-PKAtide, 10 μM ATP). It counts as biochemical. Particulars: Table 1; disulfide chemistry: bait, fragments, unpurified reaction mixtures and purified ligand; relative to concentration of fragment molecule; read-out: IC50. On the procedure: Aurora A Kinase Assay: Humanized mouse Aurora A (amino acids 107-403) was expressed in E. coli as described herein. […] The kinase reaction was initiated by adding Aurora A at a final concentration of 0.3 nM and incubated at 21° C. for 30 min. As a positive control for enzyme activity, the reaction mixture was added to DMSO and as a negative control for enzyme activity, the reaction mixture was added to Compound 1 at a final concentration of 5 μM. Both control reactions were conducted in triplicate. To detect phosphorylated PKAtide, the kinase reaction was combined with Progressive Binding Solution (1:400 Progressive Binding Reagent, 1× Buffer A, Molecular Devices) in a 1:3 ratio. The mixture was incubated for 30 min at 25° C. and the plate was scanned on an Analyst AD with excitation at 485 nm and emission at 530 nm. The fluorescence polarization value “P” is defined by equation (1) below, where “Fpar” is the fluorescence intensity parallel to the excitation plane and “Fperp” is the fluorescence intensity perpendicular to the excitation plane. The value “mP” was generated by multiplying the P value for each reaction well by a factor of 1000. The percent relative enzymatic activity (“Y” values) was calculated by normalizing the mP value for each well to the average positive control. Relative enzymatic activity values were plotted as a function of the logarithm of compound concentration (“x”) and […] values were generated in GraphPad Prism software version 4.01 using Equation (2), where “x” is the logarithm of compound concentration and “Top”, “Bottom” and “HillSlope” are curve parameters calculated by the software. IC50 values were calculated as the concentration of compound at which enzymatic activity is 50%.
Fragment Library Pilot Screen. Fragment molecule plates were screened in 96-well plates at 5 μM in single-point format in the Aurora A Kinase assay as described above. All reaction mixtures resulting in greater than or equal to 50% inhibition of enzymatic activity were then tested in an IC50 assay. Original screening samples were used for follow-up IC50 experiments. LC/MS analysis was conducted on fragment assembly screening plates to confirm presence of desired test ligand in the reaction mixture. Confirmed hits were then resynthesized as purified thioether compounds and tested in an IC50 assay.
Consider `O=C(NCCSSCCNc1ncnc2ccsc12)Nc1cccc(C(F)(F)F)c1` [Compound 3], for which the IC50 came out at 1.6 µM.
Same read-out and setting: to `SCCNc1ncnc2ccsc12` [Compound 4] belongs 24 µM; to `NCCSSCCNC(=O)Nc1cccc(C(F)(F)F)c1` [Compound 5], 30 µM.
For `NCCSSCCN` [Cystamine, reference compound], the IC50 came to 55 µM.

Still in this test, the particulars now being: Table 2; thioether chemistry: bait, test fragment, unpurified reaction mixtures and purified ligand; relative to concentration of fragment molecule; read-out: IC50.
As to `Clc1ncnc2ccsc12` [Compound 7], the IC50 came out at 28 µM.
The same measure, in the same setting: the result for `NCCSSCCc1cnc(NC(=O)Nc2cccc(C(F)(F)F)c2)s1` [Compound 8] reads 10 µM and 12.2 µM.
The same measure, in the same setting: to `NCCSSCCN` [Cystamine, reference compound] belongs over 500 µM.

Staying with this test, now noted: Table 4; purified resynthesized molecule; read-out: Resynthesized Hit/Analog IC50.
Consider `COc1ccc(C(=O)Nc2ccccc2)cc1NC(=O)CCSc1ncnc(N)c1Br` [Compound 15], for which the IC50 stood at 0.12 µM.
On the same count and under the same terms, the result for `COc1ccc(C(=O)Nc2ccccc2)cc1NC(=O)CCSCc1cnc2[nH]ccc2c1` [Compound 16] reads 0.15 µM; that for `O=C(NCCSc1ncnc2[nH]ccc12)Nc1ccc(C(=O)O)c(O)c1` [Compound 17], 0.4 µM.
Still for that read-out and setting: to `Nc1ncnc(NCCc2cnc(NC(=O)Nc3cccc(C(F)(F)F)c3)s2)c1Br` [Compound 18] belongs 0.005 µM.

The test is the same for the next values; noted with them: Table 5; bait, fragment and disulfide-assembled molecules; relative to concentration of fragment molecule; read-out: IC50.
Take `CCCCNC(=O)c1cccc(NC(=O)CSSCCN)c1` [Compound 20]: the IC50 was over 50 µM.
Still for that read-out and setting: to `CCCCNC(=O)c1cccc(NC(=O)CCCCCNc2ncnc3ccsc23)c1` [Compound 21] belongs 4.1 µM; to `NCCSSCCNC(=O)c1sc(C(F)(F)F)cc1O` [Compound 22], over 50 µM.
Still for that read-out and setting: the result for `O=C(NCCCCCNc1ncnc2ccsc12)c1sc(C(F)(F)F)cc1O` [Compound 23] reads 11.5 µM.

The same test, now with this note: thioether chemistry; product mixture and purified compound; read-out: IC50.
For the compound `O=C(Nc1cccc(C(F)(F)F)c1)Nc1ncc(CCSc2ncnc3ccsc23)s1` [Compound 6, reference compound], the IC50 worked out at 0.005 µM.

For the origin of these results see patent US10107798B2, “Methods of chemotype evolution” (SUNESIS PHARMACEUTICALS, INC., priority 2008, dated 2018).
